Format: in vivo
Conditions: beagle dogs; single dose ceftriaxone 30 mg/kg i.v., without beta-lactamase
Experimental: The capability of Bacillus licheniformis D276N mutant beta-lactamase enzyme to inactivate ceftriaxone (CRO) which has been excreted into the gastrointestinal tract during parenteral therapy was investigated in a dog model. Laboratory beagles of the study have a nipple valve surgically inserted in jejunum approximately 170 cm distal to pylorus enabling collection of samples for the analysis. […] Five beagle dogs were utilized in each experiment.
The study was performed as two sequential treatments: In the first treatment (control experiment without beta-lactamase therapy), a single dose of ceftriaxone (30 mg of ceftriaxone (CRO) per kg of body weight which corresponds to about 1 gram dose of CRO in humans) was administered intravenously minutes after the first feeding of the dogs. Jejunal samples were collected at various time points during ten hours. The dogs were fed again five hours and forty minutes after the ceftriaxone administration in order to induce the biliary excretion of ceftriaxone accumulated in gallbladder.
Jejunal chyme samples were immediately freezed and stored at −20° C. to await the analysis. Chyme samples were pretreated with perchloric-citric acid in order to precipitate interfering substances. […] A reverse-phase high-pressure chromatography method with UV detection was used for the quantification of ceftriaxone in supernatants. […]

## CO/N=C(\C(=O)N[C@@H]1C(=O)N2C(C(=O)O)=C(CSc3nc(=O)c(=O)[nH]n3C)CS[C@H]12)c1csc(N)n1 [ceftriaxone]
  highest jejunal ceftriaxone concentration: about 1500 micrograms per gram of jejunal chyme
  time of highest jejunal ceftriaxone concentration after injection: 60 min

From patent publication US11214787B2, “Modified beta-lactamases and methods and uses related thereto” (priority 2010, dated 2022)
